≈ marks a conversion by molar mass, not a printed value.
Experiments:
[1] = Therapeutic index, ratio of IC50 for cytotoxicity against mouse 3T3-L1 cells to EC50 for anti-adipogenic in mouse 3T3-L1 cells; assay type: toxicity, cell-based; conditions: read-out: Ratio IC50/EC50
[2] = Cytotoxicity against mouse 3T3-L1 cells assessed as reduction in cell viability incubated for 24 hrs by Sulforhodamine B assay; assay type: toxicity, cell-based
3T3-L1 [3] = test: Anti-adipogenic activity in mouse 3T3-L1 cells assessed as lipid-lowering activity measured after 9 days by Oil Red O staining based microplate reader analysis; assay type: functional, cell-based; conditions: 3T3-L1, 216 h
3T3-L1 [4] = test: Anti-adipogenic activity in mouse 3T3-L1 cells assessed as lipid-lowering activity at 1 uM measured after 9 days by Oil Red O staining based microplate reader analysis relative to control; assay type: functional; conditions: time 9 day
[5] = Half life in Sprague-Dawley rat at 5 mg/kg, po administered for 24 hrs by LC-MS/MS analysis; assay type: ADME, organism-based; conditions: in vivo
[6] = AUC (0 to t) in Sprague-Dawley rat at 5 mg/kg, po administered for 24 hrs by LC-MS/MS analysis; assay type: ADME, organism-based; conditions: in vivo
[7] = Tmax in Sprague-Dawley rat at 5 mg/kg, po administered for 24 hrs by LC-MS/MS analysis; assay type: ADME, organism-based; conditions: in vivo
[8] = Cmax in Sprague-Dawley rat at 5 mg/kg, po administered for 24 hrs by LC-MS/MS analysis; assay type: ADME, organism-based; conditions: in vivo
[9] = Apparent oral clearance in Sprague-Dawley rat at 5 mg/kg, po administered for 24 hrs by LC-MS/MS analysis; assay type: ADME, organism-based; conditions: in vivo
[10] = Oral bioavailability (0 to t) in Sprague-Dawley rat at 5 mg/kg administered for 24 hrs by LC-MS/MS analysis; assay type: ADME, organism-based; conditions: in vivo
[11] = Half life in Sprague-Dawley rat at 2 mg/kg, iv administered for 24 hrs by LC-MS/MS analysis; assay type: ADME, organism-based; conditions: in vivo
[12] = Apparent volume of distribution during terminal phase in Sprague-Dawley rat at 2 mg/kg, iv administered for 24 hrs by LC-MS/MS analysis; assay type: ADME, organism-based; conditions: in vivo
[13] = MRT (0 to t) in Sprague-Dawley rat at 5 mg/kg, po administered for 24 hrs by LC-MS/MS analysis; assay type: ADME, organism-based; conditions: in vivo
[14] = Oral bioavailability (0 to infinity) in Sprague-Dawley rat at 5 mg/kg administered for 24 hrs by LC-MS/MS analysis; assay type: ADME, organism-based; conditions: in vivo
[15] = AUC (0 to infinity) in Sprague-Dawley rat at 2 mg/kg, iv administered for 24 hrs by LC-MS/MS analysis; assay type: ADME, organism-based; conditions: in vivo
[16] = Aqueous solubility of compound incubated for 24 hrs by HPLC analysis; assay type: physicochemical; conditions: aqueous medium
[17] = AUC (0 to t) in Sprague-Dawley rat at 2 mg/kg, iv administered for 24 hrs by LC-MS/MS analysis; assay type: ADME, organism-based; conditions: in vivo
[18] = Apparent volume of distribution during terminal phase in Sprague-Dawley rat at 5 mg/kg, po administered for 24 hrs by LC-MS/MS analysis; assay type: ADME, organism-based; conditions: in vivo, read-out: Vz/F
[19] = MRT (0 to t) in Sprague-Dawley rat at 2 mg/kg, iv administered for 24 hrs by LC-MS/MS analysis; assay type: ADME, organism-based; conditions: in vivo
[20] = AUC (0 to infinity) in Sprague-Dawley rat at 5 mg/kg, po administered for 24 hrs by LC-MS/MS analysis; assay type: ADME, organism-based; conditions: in vivo

SMILES	selectivity ratio [1]	IC50 at 24 h [2] [nM]	EC50 (3T3-L1 [3]) [nM]	Activity (3T3-L1 [4]) [%]	further results
CC(=O)c1c(-c2nccc(NCCN(C)C)n2)[nH]c2ccccc12	112	28400	254	103.9	–
COc1cnc(-c2[nH]c3ccccc3c2C(C)=O)nc1NCCCN1CCCC1	–	–	–	49.7	–
CC(=O)c1c(-c2ncc(C)c(NCCCN(C)C)n2)[nH]c2ccccc12	254	32200	127	101.8	–
CC(=O)c1c(-c2nc(NCCN3CCCC3)c3ncn(C)c3n2)[nH]c2ccccc12	222	65500	295	99.5	–
CC(=O)c1c(-c2nc(NCCN3CCCC3)cc(C(F)(F)F)n2)[nH]c2ccccc12	–	–	–	54.4	–
CC(=O)c1c(-c2nc(NCCN3CCCC3)c3cccnc3n2)[nH]c2ccccc12	–	–	–	16.8	–
CC(=O)c1c(-c2nc(NCCCN(C)C)c3ncn(C)c3n2)[nH]c2ccccc12	187	57700	309	99.9	–
CC(=O)c1c(-c2nc(C)cc(NCCN3CCCC3)n2)[nH]c2ccccc12	202	18000	89	98.3	–
CC(=O)c1c(-c2nc(NCCCN(C)C)cc(C(F)(F)F)n2)[nH]c2ccccc12	–	–	–	15.5	–
COc1cnc(-c2[nH]c3ccccc3c2C(C)=O)nc1NCCN1CCCC1	–	–	–	48.3	–
CC(=O)c1c(-c2nc(O)cc(NCCCN(C)C)n2)[nH]c2ccccc12	–	–	–	-3.1	–
CC(=O)c1c(-c2ncc(F)c(NCCN3CCCC3)n2)[nH]c2ccccc12	208	37400	180	102.6	–
CC(=O)c1c(-c2nc(NCCN3CCCC3)cc(-c3ccccc3)n2)[nH]c2ccccc12	–	–	–	5.9	–
CC(=O)c1c(-c2nc(NCCCN(C)C)cc(-c3ccc(C(C)(C)C)cc3)n2)[nH]c2ccccc12	–	–	–	20.5	–
CC(=O)c1c(-c2nc(NCCCN(C)C)cc(-c3ccccc3)n2)[nH]c2ccccc12	–	–	–	26.9	–
CC(=O)c1c(-c2nc(NCCN(C)C)c3ccccc3n2)[nH]c2ccccc12	81	6310	78	100.5	–

SMILES	selectivity ratio [1]	IC50 at 24 h [2] [nM]	EC50 (3T3-L1 [3]) [nM]	Activity (3T3-L1 [4]) [%]	further results
CC(=O)c1c(-c2ncc(C)c(NCCN3CCCC3)n2)[nH]c2ccccc12	212	23400	111	99.8	–
CC(=O)c1c(-c2nc(NCCN(C)C)c3cccnc3n2)[nH]c2ccccc12	–	–	–	22.4	–
CC(=O)c1c(-c2nc(C)cc(NCCCN(C)C)n2)[nH]c2ccccc12	151	33900	225	99.8	–
CCc1cc(NCCN2CCCC2)nc(-c2[nH]c3ccccc3c2C(C)=O)n1	–	–	–	58.5	–
CC(=O)c1c(-c2nc(C)c(C)c(NCCCN(C)C)n2)[nH]c2ccccc12	60	30400	509	92.1	–
CC(=O)c1c(-c2nc3c(c(NCCCN(C)C)n2)CCCC3)[nH]c2ccccc12	–	–	–	28	–
CC(=O)c1c(-c2nc3c(c(NCCN4CCCC4)n2)CCCC3)[nH]c2ccccc12	–	–	–	20.5	–
CCc1cc(NCCCN(C)C)nc(-c2[nH]c3ccccc3c2C(C)=O)n1	–	–	–	73.8	–
COc1cnc(-c2[nH]c3ccccc3c2C(C)=O)nc1NCCCN(C)C	–	–	–	54.4	–
CC(=O)c1c(-c2nc(NCCN3CCCC3)c3ccccc3n2)[nH]c2ccccc12	190	8490	45	99.5	half-life [5]: 6.5 h; AUC(0-t) at 24 h [6]: 574 ng·h/mL; Tmax [7]: 1.2 h; Cmax [8]: 63.7 ng/mL; CL/F [9]: 137 mL/min/kg; bioavailability [10]: 38.1%; half-life [11]: 12.4 h; Vz/F [12]: 47.8 L/kg; MRT last at 24 h [13]: 9.1 h; bioavailability [14]: 32.9%; AUC(0-inf) [15]: 749 ng·h/mL; solubility at 24 h [16]: 8 µg/mL (≈ 20 µM); AUC(0-t) at 24 h [17]: 603 ng·h/mL; Vd/F [18]: 77.8 L/kg; MRT last at 24 h [19]: 14 h; AUC(0-inf) [20]: 616 ng·h/mL
CC1=C(O)C(=O)C=C2C1=CC=C1[C@@]2(C)CC[C@@]2(C)[C@@H]3C[C@](C)(C(=O)O)CC[C@]3(C)CC[C@]12C [CELASTROL]	7	730	99	–	–
CC(=O)c1c(-c2nc3c(c(NCCN(C)C)n2)CNCC3)[nH]c2ccccc12	–	–	–	25.1	–
CC(=O)c1c(-c2nc(NCCCN(C)C)cc(-c3cccnc3)n2)[nH]c2ccccc12	–	–	–	48.2	–
CC(=O)c1c(-c2nc3c(c(NCCN(C)C)n2)COC3)[nH]c2ccccc12	–	–	–	46.9	–
CC(=O)c1c(-c2nccc(NCCCN(C)C)n2)[nH]c2ccccc12	–	–	–	79.5	–
CC(=O)c1c(-c2ncc(F)c(NCCCN(C)C)n2)[nH]c2ccccc12	–	–	–	58	–
